Experiment in all cases: MIC testing, broth microdilution in CAMHB
Assay type in all cases: cell-based
Background: Dilution methods test growth across graded concentrations, often in twofold steps.

In assay [1] the test system is Staphylococcus aureus, NRS384. Conditions: 18-20 hr, lowest concentration that completely inhibits visible growth; for Compound MICs, Staphylococcus aureus, NRS384: 37° C.; for MIC: Staphylococcus aureus, NRS384, 37° C., read-out: Compound MICs, Staphylococcus aureus, NRS384. On the procedure: (§1) Compounds 1-71 were subsequently tested to determine MICs of the compounds relative to the following five species/strains of bacteria: Staphylococcus aureus, NRS384; Enterococcus faecalis, ATCC 51575; Salmonella typhimurium, CMCC 50115; Escherichia coli, ATCC BAA-198; and Acinetobacter baumannii, ATCC 17978. MIC testing of compounds was conducted according to the following protocol.
(§2) For each strain to be tested, made fresh streaks onto CAMHA from −80° C. glycerol stocks.
(§3) • CAMHB: Dissolved 22 g of the powder per 1 L of purified water. Mixed well. Autoclaved at 121° C. for 10 minutes. Stored at room temperature (RT) for no more than 1 week. • Saline: Dissolved 9 g of the powder per 1 L of purified water. Mixed well. Autoclaved at 121° C. for 30 minutes. Stored at room temperature (RT) for no more than 1 week.
(§4) Prepared the stock solutions of the tested compounds.
(§5) For compounds: • a) Dispensed 20 ul compound to the wells in column 1, and 20 ul DMSO to the wells in column 2 to 12; • b) Diluted the compounds by transferring 10 ul compounds from column 1 to 20 ul DMSO in column 2; mix with pipette. • c) Repeated until column 11 to get 3×serial dilutions. Column 12 was the DMSO control.
(§6) A multichannel pipette was used to deliver 1 μl of the diluted compound into each well of the corresponding daughter plate.
(§7) Scraped 4-8 single colonies from an agar plate into 5 ml saline in a 14 ml Falcon conical tube. Vortexed the tube to suspend the bacteria. Adjusted the turbidity to ˜0.2 (corresponding to 0.5 McFarland) with an Ultrospec 10 Cell density meter.
(§8) The strain suspension was diluted 200-fold in CAMHB medium and dispense into a sterile reservoir. A multichannel pipette was then used to deliver 99 μl of the diluted inocula into each well of the corresponding daughter plate.
(§9) Incubate the daughter plates at 37° C., 85% humidity for 18-20 hr.
(§10) A magnifying mirror device was used for ease of scoring the presence or absence of growth in the wells. 96-well micro-plates were photographed.

Assay [2] relates to Salmonella typhimurium, CMCC 50115. Particulars: 37° C., 18-20 hr, lowest concentration that completely inhibits visible growth; for MIC: Salmonella enterica, read-out: Compound MICs, Salmonella typhimurium, CMCC 50115. On the procedure: as §1, §2, §3, §4, §5, §6, §7, §8, §9, §10
For assay [3], the system named is Enterococcus faecalis, ATCC 51575. Conditions: 18-20 hr, lowest concentration that completely inhibits visible growth; for Compound MICs, Enterococcus faecalis, ATCC 51575: 37° C.; for MIC: Enterococcus faecalis, ATCC51575, 37° C., read-out: Compound MICs, Enterococcus faecalis, ATCC 51575. On the procedure:
as §1, §2, §3, §4, §5, §6, §7, §8, §9, §10

For assay [4], the system named is Acinetobacter baumannii, ATCC 17978. Conditions: 18-20 hr, lowest concentration that completely inhibits visible growth; for Compound MICs, Acinetobacter baumannii, ATCC 17978: 37° C.; for MIC: Acinetobacter baumannii, ATCC17978, 37° C., read-out: Compound MICs, Acinetobacter baumannii, ATCC 17978. On the procedure:
as §1, §2, §3, §4, §5, §6, §7, §8, §9, §10

For assay [5], the system named is Escherichia coli, ATCC BAA-198. Particulars: 18-20 hr, lowest concentration that completely inhibits visible growth; for Compound MICs, Escherichia coli, ATCC BAA-198: 37° C.; for MIC: Escherichia coli, ATCCBAA198, 37° C., read-out: Compound MICs, Escherichia coli, ATCC BAA-198. On the procedure:
as §1, §2, §3, §4, §5, §6, §7, §8, §9, §10

Converted amounts (≈) assume the structure as drawn. Where only a bound is given, the exact number is not on record here.

Regarding `CC(C)c1ccc(Cn2ccc3c4c(N)nc(N)nc4ccc32)nc1` [Compound 59], in assay [1], the “Compound MICs, Staphylococcus aureus, NRS384” value (“Compound MICs … NRS384” below) came to 0.26 µg/mL. In assay [2], the “Compound MICs, Salmonella typhimurium, CMCC 50115” value (from here on “Compound MICs … CMCC 50115”) worked out at 0.26 µg/mL. In assay [3], the “Compound MICs, Enterococcus faecalis, ATCC 51575” value (“Compound MICs … ATCC 51575” for short) was 0.03 µg/mL. Moreover, the “Compound MICs, Acinetobacter baumannii, ATCC 17978” value (shortened to “Compound MICs … ATCC 17978”) in assay [4] is 7.11 µg/mL. The “Compound MICs, Escherichia coli, ATCC BAA-198” value (“Compound MICs, Escherichia coli” below) in assay [5] was 21.3 µg/mL.

Regarding `CC(C)C#Cc1ccc(Cn2ccc3c4c(N)nc(NC5CC5)nc4ccc32)cc1` [Compound 17], in assay [1], the “Compound MICs … NRS384” value was found to be 2.37 µg/mL. Also, the “Compound MICs … CMCC 50115” value in assay [2] came out at 7.11 µg/mL. In addition, in assay [3], the “Compound MICs … ATCC 51575” value was 0.79 µg/mL. For the same compound, the “Compound MICs … ATCC 17978” value in assay [4] stood at 21.3 µg/mL. In addition, the “Compound MICs, Escherichia coli” value in assay [5] was determined as 21.3 µg/mL.

In the case of `CC#Cc1ccc(Cn2ccc3c4c(N)nc(NC5CC5)nc4ccc32)cc1` [Compound 18], the “Compound MICs … NRS384” value in assay [1] was 2.37 µg/mL. In assay [2], the “Compound MICs … CMCC 50115” value is 7.11 µg/mL. Also, the “Compound MICs … ATCC 51575” value in assay [3] came to 0.79 µg/mL. Also, the “Compound MICs … ATCC 17978” value in assay [4] came to 21.3 µg/mL. In addition, the “Compound MICs, Escherichia coli” value in assay [5] stood at 21.3 µg/mL.

Consider `Nc1nc(N)c2c(ccc3c2ccn3C/C=C/c2ccccc2)n1` [Compound 4], for which the MIC in assay [1] worked out at 0.03 µg/mL (≈ 0.0951 µM); in assay [2], 0.79 µg/mL (≈ 2.5 µM); in assay [3], 0.03 µg/mL (≈ 0.0951 µM); in assay [4], 7.11 µg/mL (≈ 22.5 µM); in assay [5], 7.11 µg/mL (≈ 22.5 µM).

As to `Nc1nc(N)c2c(ccc3c2ccn3Cc2ccc(Br)c3ccccc23)n1` [Compound 44], the “Compound MICs … NRS384” value in assay [1] is 0.09 µg/mL. In addition, the “Compound MICs … CMCC 50115” value in assay [2] came to 7.11 µg/mL. Besides, the “Compound MICs … ATCC 51575” value in assay [3] was found to be 0.03 µg/mL. In addition, the “Compound MICs … ATCC 17978” value in assay [4] was 64 µg/mL. Further, the “Compound MICs, Escherichia coli” value in assay [5] amounted to 7.11 µg/mL.

In the case of `CC#Cc1ccc(Cn2ccc3c4c(N)nc(N)nc4ccc32)cc1` [Compound 25], the “Compound MICs … NRS384” value in assay [1] stood at 0.26 µg/mL. Besides, the “Compound MICs … CMCC 50115” value in assay [2] is 0.79 µg/mL. Further, in assay [3], the “Compound MICs … ATCC 51575” value is 0.09 µg/mL. For the same compound, the “Compound MICs … ATCC 17978” value in assay [4] is 21.3 µg/mL. For the same compound, in assay [5], the “Compound MICs, Escherichia coli” value came out at 7.11 µg/mL.

With `Nc1nc(N)c2c(ccc3c2ccn3CC#Cc2ccccc2)n1` [Compound 3], the MIC in assay [1] is 0.26 µg/mL (≈ 0.83 µM); in assay [2] it was 0.79 µg/mL (≈ 2.52 µM); in assay [3], 0.03 µg/mL (≈ 0.0957 µM); in assay [4], 7.11 µg/mL (≈ 22.7 µM); in assay [5], 7.11 µg/mL (≈ 22.7 µM).

Turning to `Nc1nc(N)c2c(ccc3c2ccn3CC2CCCC2)n1` [Compound 11], the MIC came to 0.088 µg/mL (≈ 0.313 µM) in assay [1]; 0.79 µg/mL (≈ 2.81 µM) in assay [2]; 0.03 µg/mL (≈ 0.107 µM) in assay [3]; 7.11 µg/mL (≈ 25.3 µM) in assay [4]; 21.3 µg/mL (≈ 75.7 µM) in assay [5].

Consider `COc1ccc(Br)cc1Cn1ccc2c3c(N)nc(N)nc3ccc21` [Compound 70], for which the MIC in assay [1] is 0.01 µg/mL (≈ 0.0251 µM); in assay [2], 0.26 µg/mL (≈ 0.653 µM); in assay [3], at most 0.001 µg/mL; in assay [4] it was 2.37 µg/mL (≈ 5.95 µM); in assay [5], 2.37 µg/mL (≈ 5.95 µM).

Turning to `N#Cc1ccc(Cn2ccc3c4c(N)nc(N)nc4ccc32)s1` [Compound 57], the “Compound MICs … NRS384” value in assay [1] came to 0.09 µg/mL. For the same compound, in assay [2], the “Compound MICs … CMCC 50115” value is 0.09 µg/mL. The “Compound MICs … ATCC 51575” value in assay [3] was found to be 0.03 µg/mL. In addition, the “Compound MICs … ATCC 17978” value in assay [4] was 7.11 µg/mL. Also, the “Compound MICs, Escherichia coli” value in assay [5] was found to be 7.11 µg/mL.

As to `Nc1nc(NC2CC2)nc2ccc3c(ccn3Cc3ccc(C#Cc4ccccc4)cc3)c12` [Compound 19], in assay [1], the “Compound MICs … NRS384” value came to 2.37 µg/mL. For the same compound, the “Compound MICs … CMCC 50115” value in assay [2] worked out at 21.3 µg/mL. The “Compound MICs … ATCC 51575” value in assay [3] amounted to 0.79 µg/mL. Besides, in assay [4], the “Compound MICs … ATCC 17978” value is above 64 µg/mL. Besides, the “Compound MICs, Escherichia coli” value in assay [5] was above 64 µg/mL.

(Values after patent publication US20230295164A1, “COMPOUNDS HAVING ANTIBACTERIAL ACTIVITY” (The Trustees of Princeton University, priority 2020, published 2023).)
